These compounds were tested against T1, CCR4 receptor (Homo sapiens, UniProt P51679) (assay: CCR4 antagonist activity in Beta-Arrestin Cellular Assay (PathHunter, CCL22 challenge)). Details: CHO-K1 cells expressing the CCR4 receptor; CCL22 at EC80 (15 nM), 90 minutes; 30 min pre-incubation; read-out: Potency (CCR4 antagonist IC50 in the β-arrestin assay).
T1 construct: beta-galactosidase enzyme-fragment tag; From own knowledge, PathHunter uses a ProLink/enzyme-donor fragment, usually at the receptor's C-terminus; expressed in transfected cells; host or cells: CHO-K1
T1 sequence (P51679 1-360): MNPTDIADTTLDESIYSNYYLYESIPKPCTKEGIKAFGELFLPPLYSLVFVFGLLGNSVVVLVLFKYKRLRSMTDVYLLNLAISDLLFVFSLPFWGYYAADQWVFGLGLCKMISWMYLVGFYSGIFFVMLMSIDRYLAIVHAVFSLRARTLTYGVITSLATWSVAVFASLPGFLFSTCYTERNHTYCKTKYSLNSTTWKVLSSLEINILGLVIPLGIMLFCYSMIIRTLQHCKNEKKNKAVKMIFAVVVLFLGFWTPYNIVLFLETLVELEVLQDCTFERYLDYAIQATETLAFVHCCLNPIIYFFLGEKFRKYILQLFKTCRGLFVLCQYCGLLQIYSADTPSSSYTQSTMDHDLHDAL
Format: cell-based
Experimental: Example 39. Determination of CCR4 antagonist activity in Beta-Arrestin Cellular Assay
CCR4 Antagonistic Activity was assessed in Beta-Arrestin Cellular Assay. Compounds were assessed in CHO-K1 cells expressing the CCR4 receptor modified to enable β-glactosidase detection of β-arrestin agonist activity stimulated by CCL22 in a chemiluminescence assay. Cells were seeded in a total volume of 20 μL into white walled, 384-well microplates and incubated at 37° C. prior to testing. Cells were pre-incubated with test compound for 30 min at 37° C. followed by agonist challenge with CCL22 at the EC80 concentration (15 nM) for 90 minutes. Assay signal was generated through a single addition of 12.5 or 15 μL ([…]) of PathHunter Detection reagent cocktail, followed by a one-hour incubation at room temperature. Microplates were read following signal generation with a PerkinElmer Envision™ instrument for chemiluminescent signal detection. Antagonist activity was analyzed using CBIS data analysis suite (ChemInnovation, CA). Antagonist activity was characterized as percentage inhibition calculated using the following formula:
An IC50 of >500 nM is designated as Potency C, an IC50 of between 500 nM and 100 nM is designated as Potency B and an IC50 of <100 nM is designated as Potency A.
`Cc1cc(Cl)ccc1[C@@H](C)Nc1cc(N2CCC([C@H]3CCCN([C@H]4C[C@](C)(C(=O)O)C4)C3)CC2)nc2ncnn12` [Example 33, (1R,3r)-3-((R)-1′-(7-(((R)-1-(4-chloro-2-methylphenyl)ethyl)amino)-[1,2,4]triazolo[1,5-a]pyrimidin-5-yl)-[3,4′-bipiperidin]-1-yl)-1-methylcyclobutane-1-carboxylic acid] gave an IC50 of 100 to 500 nM. `C[C@@H](Nc1cc(N2CCC([C@H]3CCCN([C@H]4C[C@](C)(C(=O)O)C4)C3)CC2)nc2nccn12)c1ccc(Cl)cc1F` [Example 27, (1R,3r)-3-((R)-1′-(5-(((R)-1-(4-chloro-2-fluorophenyl)ethyl)amino)imidazo[1,2-a]pyrimidin-7-yl)-[3,4′-bipiperidin]-1-yl)-1-methylcyclobutane-1-carboxylic acid] showed an IC50 of under 100 nM. `C[C@@H](Nc1cc(N2CCC([C@H]3CCCN([C@H]4C[C@](C)(C(=O)O)C4)C3)CC2)nc2ccnn12)c1ccc(F)cc1F` [Example 34, (1R,3r)-3-((R)-1′-(7-(((R)-1-(2,4-difluorophenyl)ethyl)amino)pyrazolo[1,5-a]pyrimidin-5-yl)-[3,4′-bipiperidin]-1-yl)-1-methylcyclobutane-1-carboxylic acid] was tested, and the IC50 was under 100 nM. `Cc1cc(Cl)ccc1[C@@H](C)Nc1cc(N2CCC([C@H]3CCCN([C@H]4C[C@](C)(C(=O)O)C4)C3)CC2)nc2ccnn12` [Example 32, (1R,3r)-3-((R)-1′-(7-(((R)-1-(4-chloro-2-methylphenyl)ethyl)amino)pyrazolo[1,5-a]pyrimidin-5-yl)-[3,4′-bipiperidin]-1-yl)-1-methylcyclobutane-1-carboxylic acid] gave an IC50 of under 100 nM. Work on `C[C@@H](Nc1cc(N2CCC([C@H]3CCCN([C@H]4C[C@](C)(C(=O)O)C4)C3)CC2)nc2nccn12)c1ccc(Cl)cc1Cl` [Example 36, (1R,3r)-3-((R)-1′-(5-(((R)-1-(2,4-dichlorophenyl)ethyl)amino)imidazo[1,2-a]pyrimidin-7-yl)-[3,4′-bipiperidin]-1-yl)-1-methylcyclobutane-1-carboxylic acid] yielded an IC50 of under 100 nM. With `C[C@@H](Nc1cc(N2CCC([C@H]3CCCN(Cc4nc[nH]n4)C3)CC2)nc2ncnn12)c1ccc(Cl)cc1Cl` [Example 5, 5-((R)-1-((1H-1,2,4-triazol-3-yl)methyl)-[3,4′-bipiperidin]-1′-yl)-N-((R)-1-(2,4-dichlorophenyl)ethyl)-[1,2,4]triazolo[1,5-a]pyrimidin-7-amine] the IC50 was under 100 nM. With `Cc1cc(F)ccc1[C@@H](C)Nc1cc(N2CCC([C@H]3CCCN([C@H]4C[C@](C)(C(=O)O)C4)C3)CC2)nc2ccnn12` [Example 29, (1R,3r)-3-((R)-1′-(7-(((R)-1-(4-fluoro-2-methylphenyl)ethyl)amino)pyrazolo[1,5-a]pyrimidin-5-yl)-[3,4′-bipiperidin]-1-yl)-1-methylcyclobutane-1-carboxylic acid] the IC50 was under 100 nM. With `C[C@@H](Nc1cc(N2CCC([C@H]3CCCNC3)CC2)nc2ncnn12)c1ccc(Cl)cc1Cl` [Example 1, 5-((R)-[3,4′-bipiperidin]-1′-yl)-N-((R)-1-(2,4-dichlorophenyl)ethyl)-[1,2,4]triazolo[1,5-a]pyrimidin-7-amine] the IC50 was under 100 nM. `CNS(=O)(=O)CCCN1CCC[C@H](C2CCN(c3cc(N[C@H](C)c4ccc(Cl)cc4Cl)n4ncnc4n3)CC2)C1` [Example 20, 3-((R)-1′-(7-(((R)-1-(2,4-dichlorophenyl)ethyl)amino)-[1,2,4]triazolo[1,5-a]pyrimidin-5-yl)-[3,4′-bipiperidin]-1-yl)-N-methylpropane-1-sulfonamide] was tested, and the IC50 was under 100 nM. Work on `Cc1cc(F)ccc1[C@@H](C)Nc1cc(N2CCC([C@H]3CCCN([C@H]4C[C@](C)(C(=O)O)C4)C3)CC2)nc2ncnn12` [Example 28, (1R,3r)-3-((R)-1′-(7-(((R)-1-(4-fluoro-2-methylphenyl)ethyl)amino)-[1,2,4]triazolo[1,5-a]pyrimidin-5-yl)-[3,4′-bipiperidin]-1-yl)-1-methylcyclobutane-1-carboxylic acid] yielded an IC50 of 100 to 500 nM. `C[C@@H](Nc1cc(N2CCC(C3CCCN(CCO)C3)C2)nc2ncnn12)c1ccc(Cl)cc1Cl` (single isomer, unassigned) [Example 23a] gave an IC50 of under 100 nM. Work on `C[C@@H](Nc1cc(N2CCC([C@H]3CCCN(C4CCOCC4)C3)CC2)nc2ncnn12)c1ccc(Cl)cc1Cl` [Example 6, N-((R)-1-(2,4-dichlorophenyl)ethyl)-5-((R)-1-(tetrahydro-2H-pyran-4-yl)-[3,4′-bipiperidin]-1′-yl)-[1,2,4]triazolo[1,5-a]pyrimidin-7-amine] yielded an IC50 of under 100 nM. In the case of `C[C@@H](Nc1cc(N2CCC([C@H]3CCCN([C@H]4C[C@](C)(C(=O)O)C4)C3)CC2)nc2ccnn12)c1ccc(Cl)cc1Cl` [Example 24, (1R,3r)-3-((R)-1′-(7-(((R)-1-(2,4-dichlorophenyl)ethyl)amino)pyrazolo[1,5-a]pyrimidin-5-yl)-[3,4′-bipiperidin]-1-yl)-1-methylcyclobutane-1-carboxylic acid], the IC50 is reported as under 100 nM. In the case of `C[C@@H](Nc1cc(N2CCC([C@H]3CCCN(CCCO)C3)CC2)nc2ncnn12)c1ccc(Cl)cc1Cl` [Example 22, 3-((R)-1′-(7-(((R)-1-(2,4-dichlorophenyl)ethyl)amino)-[1,2,4]triazolo[1,5-a]pyrimidin-5-yl)-[3,4′-bipiperidin]-1-yl)propan-1-ol], the IC50 is reported as under 100 nM. Work on `C[C@@H](Nc1cc(N2CCC(C3CCCN(CCO)C3)C2)nc2ncnn12)c1ccc(Cl)cc1Cl` (single isomer, unassigned) [Example 23b] yielded an IC50 of under 100 nM. In the case of `C[C@@H](Nc1cc(N2CCC([C@H]3CCCN([C@H]4C[C@](C)(C(=O)O)C4)C3)CC2)nc2ccnn12)c1ccc(F)cc1Cl` [Example 25, (1R,3r)-3-((R)-1′-(7-(((R)-1-(2-chloro-4-fluorophenyl)ethyl)amino)pyrazolo[1,5-a]pyrimidin-5-yl)-[3,4′-bipiperidin]-1-yl)-1-methylcyclobutane-1-carboxylic acid], the IC50 is reported as under 100 nM. `C[C@@H](Nc1cc(N2CCC([C@H]3CCCN(CCC(=O)O)C3)CC2)nc2ncnn12)c1ccc(Cl)cc1Cl` [Example 14, 3-((R)-1′-(7-(((R)-1-(2,4-dichlorophenyl)ethyl)amino)-[1,2,4]triazolo[1,5-a]pyrimidin-5-yl)-[3,4′-bipiperidin]-1-yl)propanoic acid] gave an IC50 of under 100 nM. `C[C@@H](Nc1cc(N2CCC([C@H]3CCCN([C@H]4C[C@](C)(C(=O)O)C4)C3)CC2)nc2ncnn12)c1ccc(Cl)cc1Cl` [Example 18, (1R,3r)-3-((R)-1′-(7-(((R)-1-(2,4-dichlorophenyl)ethyl)amino)-[1,2,4]triazolo[1,5-a]pyrimidin-5-yl)-[3,4′-bipiperidin]-1-yl)-1-methylcyclobutane-1-carboxylic acid] showed an IC50 of 100 to 500 nM. In the case of `CNC(=O)CCN1CCC[C@H](C2CCN(c3cc(N[C@H](C)c4ccc(Cl)cc4Cl)n4ncnc4n3)CC2)C1` [Example 17, 3-((R)-1′-(7-(((R)-1-(2,4-dichlorophenyl)ethyl)amino)-[1,2,4]triazolo[1,5-a]pyrimidin-5-yl)-[3,4′-bipiperidin]-1-yl)-N-methylpropanamide], the IC50 is reported as under 100 nM. In the case of `C[C@@H](Nc1cc(N2CCC([C@H]3CCCN(CC#N)C3)CC2)nc2ncnn12)c1ccc(Cl)cc1Cl` [Example 3, 2-((R)-1′-(7-(((R)-1-(2,4-dichlorophenyl)ethyl)amino)-[1,2,4]triazolo[1,5-a]pyrimidin-5-yl)-[3,4′-bipiperidin]-1-yl)acetonitrile], the IC50 is reported as under 100 nM. `C[C@@H](Nc1cc(N2CCC([C@H]3CCCN(CC(F)(F)F)C3)CC2)nc2ncnn12)c1ccc(Cl)cc1Cl` [Example 7, N-((R)-1-(2,4-dichlorophenyl)ethyl)-5-((R)-1-(2,2,2-trifluoroethyl)-[3,4′-bipiperidin]-1′-yl)-[1,2,4]triazolo[1,5-a]pyrimidin-7-amine] gave an IC50 of over 500 nM. `COCCN1CCC[C@H](C2CCN(c3cc(N[C@H](C)c4ccc(Cl)cc4Cl)n4ncnc4n3)CC2)C1` [Example 11, N-((R)-1-(2,4-dichlorophenyl)ethyl)-5-((R)-1-(2-methoxyethyl)-[3,4′-bipiperidin]-1′-yl)-[1,2,4]triazolo[1,5-a]pyrimidin-7-amine] gave an IC50 of under 100 nM. With `C[C@@H](Nc1cc(N2CCC([C@H]3CCCN([C@H]4C[C@](C)(C(=O)O)C4)C3)CC2)nc2ncnn12)c1ccc(F)cc1Cl` [Example 26, (1R,3r)-3-((R)-1′-(7-(((R)-1-(2-chloro-4-fluorophenyl)ethyl)amino)-[1,2,4]triazolo[1,5-a]pyrimidin-5-yl)-[3,4′-bipiperidin]-1-yl)-1-methylcyclobutane-1-carboxylic acid] the IC50 was under 100 nM.
